Legend:
[1] = tested on: MMP2; assay: Gelatin zymography of MMP2 activity in LPS-activated scleral fibroblasts and ARPE-19 cells; format: cell-based; conditions: LPS + 100 μM atropine or LPS + 50 μM diacerein; 48 hours
Experimental: To facilitate subsequent analysis, 1×10^6 cells were seeded in 24-well plates for at least 12 hours. […] To measure the MMP-2/MMP-9 activities, samples were separated using 8% SDS-PAGE containing 0.1% gelatin.

[2] = tested on: sclera or retina of guinea pig MFD eye; assay: Immunohistochemistry of guinea pig MFD eyes; format: in vivo
Experimental: Eyes were collected from atropine-treated and control animals, embedded in paraffin, and cut at a thickness of 20 μm; subsequently, the sections were placed on glass slides. Antigen retrieval was performed by boiling the slides in citrate buffer (pH 6.0); the sections were then stained with antibodies against IL-6, TNF-α, TGF-β, MMP2, c-Fos, NF-κB, and CHRM1 and 3. The EnVision System peroxidase kit (DAKO, Carpentaria, Calif., USA) was used to visualize immunoreactivity.
We observed a similar increase in inflammatory response in hamsters as we did in a guinea pig model of MFD.

[3] = tested on: Retinal cell (R28); assay: Gene expression by real-time PCR in LPS-treated R28 retinal cells; format: cell-based, rat
Experimental: R28 rat retinal epithelial cells were provided by Gail Seigel at the Ross Eye Institute (SUNY, Buffalo, N.Y., USA). The cells were cultured in Dulbecco's modified Eagle's medium (DMEM) with 10% fetal bovine serum (FBS) at 37° C. and 5% CO2, with medium replacement every 3 days to 4 days. Sclera were placed in a 60-mm culture dish in DMEM supplemented with 10% FBS to isolate primary scleral fibroblasts; those from fewer than three passages were used in experiments. […] Cell lysates were collected for quantitative (q)PCR to determine gene expression levels.
Total RNA was extracted using the RNeasy MiniKit (Qiagen, Valencia, Calif., USA), and 5 μg of RNA was reverse-transcribed to cDNA by using the Superscript First Strand Synthesis system (Invitrogen, Carlsbad, Calif., USA). Primers and probes used for qPCR were selected from the Universal Probes Library (Roche, West Sussex, UK). Transcript levels were normalized to those of glyceraldehyde 3-phosphate dehydrogenase in each sample.

[4] = tested on: ARPE-19 human retinal pigment epithelial cells; assay: Western blot of LPS-induced signaling in ARPE-19 cells (atropine); format: cell-based; conditions: LPS + 100 μM atropine
Experimental: ARPE-19 human retinal pigment epithelial cells were obtained from the Bioresource Collection and Research Center, HsinChu, Taiwan (BCRC; BCRC-60383). Cells were cultured in DMEM with 10% FBS at 37° C. and 5% CO2, with medium replacement every 3 to 4 days. […] After treatment, 30 μg of total cell lysates was subjected to sodium dodecyl sulfate polyacrylamide gel electrophoresis (SDS-PAGE), followed by immunoblot analysis. Primary antibodies used included ERK (Thr202/Tyr204), AKT (Ser473), PI3K (p85[Tyr458]/p55[Tyr199]), NF-κB (p65, Ser536), and c-Fos (Ser32; Cell Signaling, Beverly, Mass., USA). Antirabbit or antimouse secondary antibody conjugated with horseradish peroxidase was also used. Immunoreactive protein bands were detected using an enhanced chemiluminescence kit (ECL, Pierce, Thermo Fisher Scientific, Pittsburgh, Pa., USA). Equal loading was confirmed through probing the blots with β-actin antibody (Abcam, Cambridge, Mass., USA) as well as anti-ERK, AKT, PI3K, NF-κB, and c-Fos.

[5] = tested on: guinea pig with MFD; assay: Refractive power and axial length in guinea pig MFD model; format: in vivo, albino guinea pigs; conditions: MFD + 1% atropine; Day 21
Experimental: In this study, a total of 160 golden Syrian hamsters aged 3 weeks, weighing 80 to 90 g, and 20 albino guinea pigs, aged 2 to 3 weeks, were used for experiments. All animals were kept in a 12-hour light/dark cycle. All procedures were approved by the Institutional Animal Care and Use Committee of China Medical University and were conducted in accordance with the guidelines of the Use of Animals in Ophthalmic and Vision Research. Hamsters were raised with a right eyelid fusion for 21 days. Myopia was induced in the guinea pigs by covering the right eye with a cloth attached to the skin at a distance of at least 1 cm from the eye. MFD was induced in the right eye (with the left eye serving as a control) of animals randomly assigned to treatment or control groups (n=10 animals each) receiving daily applications of drug or phosphate-buffered saline (PBS), respectively, to both eyes.
The RE (i.e., spherical-component RE, which is defined as the mean RE in horizontal and vertical meridians) was measured using a hand-held streak retinoscope. Animals were anesthetized with 10% ether in O2. Ocular refraction was evaluated at the start and end of the experiment. […] The axial lengths were determined through A-scan ultrasonography (PacScan 300 Plus, NY, USA). […]

[6] = tested on: primary sclera fibroblast; assay: Immunofluorescence of MMP2 and COL1 in primary scleral fibroblasts; format: cell-based, rat; conditions: 100 μM atropine for 24 hours
Experimental: Primary sclera fibroblast cells plating on cover slides were washed with Tris-buffered saline (TBS), and subsequently fixed with 4% paraformaldehyde and washed twice with TBS before blocking with 1% BSA and 0.1% Triton X-100 for 1 hour. The cells were incubated with anti-MMP2 or anti-COL1 for 1 hour before being washed three times with TBS and subsequently incubated with an appropriate secondary antibody and a 4′,6-diamidino-2-phenylindole (DAPI) DNA stain. After being washed three times with TBS, the cells were imaged using fluorescence microscopy. All experiments were performed at least in triplicate.

[7] = R28, 100 ng/ml LPS and 100 μM atropine for 4 hours

CN1[C@@H]2CC[C@H]1C[C@@H](OC(=O)C(CO)c1ccccc1)C2 (some centres unmarked) [Atropine, atropine]
MMP2 activities in cells activated by LPS [1]: decreased
MFD downregulation of IL-10 level ([2]; atropine): suppressed
COL1 expression in sclera or retina of the MFD eye ([2]; atropine compared to PBS): increased
MMP2, TGF-β, and c-Fos expression in sclera or retina of the MFD eye ([2]; atropine compared to PBS): reduced
Chrm5 gene expression level [3]: 0.78 ± 0.24
Chrm 1 gene expression level [3, 7]: 0.65 ± 0.16
Chrm 2 gene expression level [3, 7]: 1.96 ± 0.2
Chrm 3 gene expression level [3, 7]: 0.78 ± 0.11
Chrm 4 gene expression level [3, 7]: 0.81 ± 0.23
Fos gene expression level [3, 7]: 0.76 ± 0.17
IL1b gene expression level [3, 7]: 0.17 ± 0.24
IL10 gene expression level [3, 7]: 1.81 ± 0.15
IL-6 gene expression level [3, 7]: 0.86 ± 0.19
MMP2 gene expression level [3, 7]: 0.75 ± 0.16
NFkB gene expression level [3, 7]: 0.85 ± 0.08
Tgfb1 gene expression level [3, 7]: 0.82 ± 0.11
Tnfa gene expression level [3, 7]: 0.84 ± 0.24
Activation of ERK through LPS and downstream c-FOS [4]: inhibited
LPS activation of PI3K, AKT, and NF-κB [4]: inhibited
Refractive power, left eye (control eye) [5]: −1.50±0.82 D
Refractive power, right eye (myopic eye) [5]: −6.79±1.00 D
COL1 expression [6]: increased
Expression levels of MMP2 [6]: inhibited

— US20210283087A1, “METHOD FOR TREATING AND RELIEVING MYOPIA” (China Medical University, priority 2014, published 2021)
